Measurements reported in the supplement of paper PMC10307832.

What was measured:
Assay in all cases: relative viability (nuclei count vs DMSO), 5 days (fraction); higher = more cells survive
CAL-12T = test system: CAL-12T
In short: (§1)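 Each reported value is a median over duplicate plates. It expresses relative viability: treated-well nuclei count divided by vehicle-well nuclei count. Lung cancer cell lines in 1536-well plates were dosed by pin tool a day after seeding, alone with one drug or with a fixed anchor-drug dose plus five library-drug doses (not always all listed) in √10 steps, and nuclei were counted after 5 days.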

NCI-H1975 = test system: NCI-H1975
In short: as §1

NCI-H520 = test system: NCI-H520
In short: as §1

NCI-H596 = test system: NCI-H596
In short: as §1

LOU-NH91 = test system: LOU-NH91
In short: as §1

LCLC-103H = test system: LCLC-103H
In short: as §1

ABC-1 = test system: ABC-1
In short: as §1

NCI-H2085 = test system: NCI-H2085
In short: as §1

NCI-H727 = test system: NCI-H727
In short: as §1

NCI-H647 = test system: NCI-H647
In short: as §1

NCI-H838 = test system: NCI-H838
In short: as §1

NCI-H1734 = test system: NCI-H1734
In short: as §1

NCI-H2126 = test system: NCI-H2126
In short: as §1

BEN = test system: BEN
In short: as §1

RERF-LC-KJ = test system: RERF-LC-KJ
In short: as §1

NCI-H460 = test system: NCI-H460
In short: as §1

NCI-H1944 = test system: NCI-H1944
In short: as §1

NCI-H1666 = test system: NCI-H1666
In short: as §1

NCI-H661 = test system: NCI-H661
In short: as §1

NCI-H1651 = test system: NCI-H1651
In short: as §1

A-427 = test system: A-427
In short: as §1

HARA = test system: HARA
In short: as §1

CN1CCN(CCOc2cc(OC3CCOCC3)c3c(Nc4c(Cl)ccc5c4OCO5)ncnc3c2)CC1 [Saracatinib] + C[C@]1(O)C[C@@H](c2nc(-c3ccc4ccc(-c5ccccc5)nc4c3)c3c(N)nccn32)C1 [Linsitinib] (partner 1 µM) showed a relative viability (CAL-12T; first compound 0.02 µM) of 0.805, a relative viability (CAL-12T; first compound 0.2 µM) of 0.776 and a relative viability (CAL-12T; first compound 0.6325 µM) of 0.863. The relative viability (CAL-12T; first compound 2 µM) was 1.03, the relative viability (NCI-H1975; first compound 0.02 µM) was 0.953 and the relative viability (NCI-H1975; first compound 0.6325 µM) was 0.95. The relative viability (NCI-H1975; first compound 2 µM) was 0.478, the relative viability (NCI-H520; first compound 0.02 µM) was 0.911 and the relative viability (NCI-H520; first compound 0.2 µM) was 0.786. The relative viability (NCI-H520; first compound 0.6325 µM) was 0.825, the relative viability (NCI-H520; first compound 2 µM) was 0.504 and the relative viability (NCI-H596; first compound 0.02 µM) was 1.01. It also gave a relative viability (NCI-H596; first compound 0.2 µM) of 0.85, a relative viability (NCI-H596; first compound 0.6325 µM) of 0.877 and a relative viability (NCI-H596; first compound 2 µM) of 0.737. It also gave a relative viability (LOU-NH91; first compound 0.02 µM) of 0.901, a relative viability (LOU-NH91; first compound 0.2 µM) of 0.603 and a relative viability (LOU-NH91; first compound 0.6325 µM) of 0.594. The relative viability (LOU-NH91; first compound 2 µM) was 0.518, the relative viability (LCLC-103H; first compound 0.02 µM) was 1.18 and the relative viability (LCLC-103H; first compound 0.2 µM) was 0.873. For the same compound, the relative viability (LCLC-103H; first compound 0.6325 µM) was 1.04, the relative viability (LCLC-103H; first compound 2 µM) was 1.04 and the relative viability (ABC-1; first compound 0.02 µM) was 0.61. For the same compound, the relative viability (ABC-1; first compound 0.2 µM) was 0.902, the relative viability (ABC-1; first compound 0.6325 µM) was 0.677 and the relative viability (ABC-1; first compound 2 µM) was 0.753. For the same compound, the relative viability (NCI-H2085; first compound 0.02 µM) was 0.952, the relative viability (NCI-H2085; first compound 0.2 µM) was 0.901 and the relative viability (NCI-H2085; first compound 0.6325 µM) was 0.881. The relative viability (NCI-H2085; first compound 2 µM) was 0.898, the relative viability (NCI-H727; first compound 0.02 µM) was 0.284 and the relative viability (NCI-H727; first compound 0.2 µM) was 0.159. The relative viability (NCI-H727; first compound 0.6325 µM) was 0.26, the relative viability (NCI-H727; first compound 2 µM) was 0.176 and the relative viability (NCI-H647; first compound 0.02 µM) was 1.05. It also gave a relative viability (NCI-H647; first compound 0.2 µM) of 0.943, a relative viability (NCI-H647; first compound 0.6325 µM) of 1.14 and a relative viability (NCI-H647; first compound 2 µM) of 0.514. It also gave a relative viability (NCI-H838; first compound 0.02 µM) of 0.997, a relative viability (NCI-H838; first compound 0.2 µM) of 0.871 and a relative viability (NCI-H838; first compound 0.6325 µM) of 0.749. For the same compound, the relative viability (NCI-H838; first compound 2 µM) was 0.838, the relative viability (NCI-H1734; first compound 0.02 µM) was 0.908 and the relative viability (NCI-H1734; first compound 0.6325 µM) was 0.713. For the same compound, the relative viability (NCI-H1734; first compound 2 µM) was 0.751, the relative viability (NCI-H2126; first compound 0.02 µM) was 0.74 and the relative viability (NCI-H2126; first compound 0.2 µM) was 0.649. For the same compound, the relative viability (NCI-H2126; first compound 0.6325 µM) was 0.612, the relative viability (NCI-H2126; first compound 2 µM) was 0.549 and the relative viability (BEN; first compound 0.02 µM) was 0.991. For the same compound, the relative viability (BEN; first compound 0.2 µM) was 0.914, the relative viability (BEN; first compound 0.6325 µM) was 1.15 and the relative viability (BEN; first compound 2 µM) was 0.64. It also gave a relative viability (RERF-LC-KJ; first compound 0.02 µM) of 0.938, a relative viability (RERF-LC-KJ; first compound 0.2 µM) of 0.83 and a relative viability (RERF-LC-KJ; first compound 0.6325 µM) of 0.883. It also gave a relative viability (RERF-LC-KJ; first compound 2 µM) of 0.813, a relative viability (NCI-H460; first compound 0.02 µM) of 0.716 and a relative viability (NCI-H460; first compound 0.2 µM) of 0.664. For the same compound, the relative viability (NCI-H460; first compound 0.6325 µM) was 0.329, the relative viability (NCI-H460; first compound 2 µM) was 0.181 and the relative viability (NCI-H1944; first compound 0.02 µM) was 1.21. For the same compound, the relative viability (NCI-H1944; first compound 0.6325 µM) was 0.971, the relative viability (NCI-H1944; first compound 2 µM) was 0.704 and the relative viability (NCI-H1666; first compound 0.02 µM) was 0.81. For the same compound, the relative viability (NCI-H1666; first compound 0.2 µM) was 0.909, the relative viability (NCI-H1666; first compound 0.6325 µM) was 0.815 and the relative viability (NCI-H1666; first compound 2 µM) was 0.844. For the same compound, the relative viability (NCI-H661; first compound 0.02 µM) was 0.525, the relative viability (NCI-H661; first compound 0.2 µM) was 0.598 and the relative viability (NCI-H661; first compound 0.6325 µM) was 0.571. For the same compound, the relative viability (NCI-H661; first compound 2 µM) was 0.376, the relative viability (NCI-H1651; first compound 0.02 µM) was 0.944 and the relative viability (NCI-H1651; first compound 0.2 µM) was 0.661. It also gave a relative viability (NCI-H1651; first compound 0.6325 µM) of 0.807, a relative viability (NCI-H1651; first compound 2 µM) of 0.67 and a relative viability (A-427; first compound 0.02 µM) of 1.03. The relative viability (A-427; first compound 0.2 µM) was 1.08, the relative viability (A-427; first compound 0.6325 µM) was 1.12 and the relative viability (A-427; first compound 2 µM) was 1.11. The relative viability (HARA; first compound 0.02 µM) was 0.917, the relative viability (HARA; first compound 0.6325 µM) was 0.787 and the relative viability (HARA; first compound 2 µM) was 0.629.
